Like-named read-outs stand apart in the source and are kept apart here.
What was measured:
CYP2C9 = target: T1, CYP2C9 (Homo sapiens, UniProt P11712); test: Cytochrome P450 assay (P450-Glo), isoform 2C9; format: in vitro ADME
T1 construct: purchased Promega; host or cells: baculovirus-infected insect cells
Text: (§1) 3A4. The Promega P450-Glo assay platform was used with microsomal preparations of
(§2) cytochrome P450s from baculovirus-infected insect cells. […]

A549 cells = test: Cytotoxicity against A549 cells (CellTiter-Glo); format: cell-based
Experimental: (§3) Cytotoxicity against A549 cells. The CellTiter-Glo assay from Promega was used. It detects the cellular ATP content, which is directly proportional to the number of viable cells. The A549 cells were obtained from DSMZ (German Collection of Microorganisms and Cell Cultures, Braunschweig, Germany) and cultured in Dulbecco’s modified Eagle medium (DMEM) with FCS (10% v/v), streptomycin (100 µg/mL), and penicillin G (100 U/mL)23. […]

[1] = Cytotoxicity against A549 cells (CellTiter-Glo); format: cell-based; conditions: human, A549 cells; for GI50: read-out: A549 cytotoxicity GI50 (50% growth inhibition)
Experimental: as §3

hERG = target: T2, hERG (Homo sapiens, UniProt Q12809); test: hERG liability assay
T2 construct: purchased Invitrogen
T2 sequence (Q12809 whole entry): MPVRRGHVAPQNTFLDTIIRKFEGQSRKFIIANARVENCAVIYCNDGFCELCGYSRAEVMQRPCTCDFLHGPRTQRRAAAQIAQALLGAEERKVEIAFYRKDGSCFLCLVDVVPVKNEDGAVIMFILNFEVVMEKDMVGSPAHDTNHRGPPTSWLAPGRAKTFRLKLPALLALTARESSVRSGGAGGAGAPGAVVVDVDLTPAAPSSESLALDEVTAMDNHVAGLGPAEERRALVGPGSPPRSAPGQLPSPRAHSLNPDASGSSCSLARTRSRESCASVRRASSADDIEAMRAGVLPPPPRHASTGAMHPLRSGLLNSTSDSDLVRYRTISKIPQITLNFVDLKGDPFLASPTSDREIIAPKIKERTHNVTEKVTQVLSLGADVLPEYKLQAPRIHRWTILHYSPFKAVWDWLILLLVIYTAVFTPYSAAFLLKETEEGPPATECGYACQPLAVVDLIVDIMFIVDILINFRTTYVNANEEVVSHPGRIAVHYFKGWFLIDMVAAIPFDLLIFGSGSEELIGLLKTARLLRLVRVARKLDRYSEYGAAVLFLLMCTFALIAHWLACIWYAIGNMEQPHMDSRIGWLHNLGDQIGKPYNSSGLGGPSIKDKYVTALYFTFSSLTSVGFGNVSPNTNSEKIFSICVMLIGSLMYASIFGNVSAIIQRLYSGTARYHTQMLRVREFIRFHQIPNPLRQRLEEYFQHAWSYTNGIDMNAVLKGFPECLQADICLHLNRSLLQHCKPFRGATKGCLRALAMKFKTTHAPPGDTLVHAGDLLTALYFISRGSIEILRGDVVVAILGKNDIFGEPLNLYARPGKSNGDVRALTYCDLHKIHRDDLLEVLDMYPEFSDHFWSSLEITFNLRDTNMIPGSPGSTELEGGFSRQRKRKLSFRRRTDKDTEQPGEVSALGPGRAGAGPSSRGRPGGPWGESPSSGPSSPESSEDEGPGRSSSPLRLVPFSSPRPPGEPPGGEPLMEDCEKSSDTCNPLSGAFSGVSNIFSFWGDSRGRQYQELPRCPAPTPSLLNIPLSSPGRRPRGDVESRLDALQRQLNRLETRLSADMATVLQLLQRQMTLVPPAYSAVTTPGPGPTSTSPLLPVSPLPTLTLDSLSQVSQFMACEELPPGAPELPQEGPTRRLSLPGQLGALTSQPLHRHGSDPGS

[2] = system: Trypanosoma brucei brucei L427 wild-type (WT) bloodstream forms; test: Activity against T. brucei (resazurin-based assay); format: cell-based; conditions: Trypanosoma brucei; for inhibition at 10 µM: read-out: T. brucei % cell growth inhibition
Experimental: The parasites were grown in 5 mL T25 ventilated flasks containing complete HMI-9 medium. The medium was supplemented with 10% heat-inactivated FBS and 100 IU/mL penicillin/streptomycin. To maintain the cultures, subpassages were performed every 2 days at a concentration of 1 × 10^4 cells/mL.
The efficacy of the compounds against Trypanosoma brucei brucei L427 wild-type (WT) bloodstream forms was assessed using a resazurin-based assay as described elsewhere. T. b. brucei L427 bloodstream forms were prepared at a cell density of 5 × 10^3 cells/mL in supplemented complete medium. Serial dilutions of the test compounds were prepared in a final volume of 100 μL, and 100 μL of the parasite suspension was added to each well containing the compound dilutions, resulting in a total volume of 200 μL per well. A dose–response curve for pentamidine was included as a quality control in each assay, and each condition was tested in duplicate. The plates were incubated for 72 h under the specified conditions for the parasite. After the incubation period, 20 μL of a 0.5 mM resazurin solution was added to each well, and the plates were incubated for an additional 4 h under the same conditions. Fluorescence was measured at an excitation wavelength of 544 nm and an emission wavelength of 590 nm using a Synergy 2 Multi-Mode Reader (Biotek, Winooski, VT, USA). The results were expressed as the percentage of parasite growth inhibition compared to the control (untreated parasites) and represented the average of at least three independent experiments.

CYP2D6 = target: T3, CYP2D6 (Homo sapiens, UniProt P10635); test: Cytochrome P450 assay (P450-Glo), isoform 2D6; format: in vitro ADME
T3 construct: purchased Promega; host or cells: baculovirus-infected insect cells
T3 sequence (P10635 whole entry, canonical isoform): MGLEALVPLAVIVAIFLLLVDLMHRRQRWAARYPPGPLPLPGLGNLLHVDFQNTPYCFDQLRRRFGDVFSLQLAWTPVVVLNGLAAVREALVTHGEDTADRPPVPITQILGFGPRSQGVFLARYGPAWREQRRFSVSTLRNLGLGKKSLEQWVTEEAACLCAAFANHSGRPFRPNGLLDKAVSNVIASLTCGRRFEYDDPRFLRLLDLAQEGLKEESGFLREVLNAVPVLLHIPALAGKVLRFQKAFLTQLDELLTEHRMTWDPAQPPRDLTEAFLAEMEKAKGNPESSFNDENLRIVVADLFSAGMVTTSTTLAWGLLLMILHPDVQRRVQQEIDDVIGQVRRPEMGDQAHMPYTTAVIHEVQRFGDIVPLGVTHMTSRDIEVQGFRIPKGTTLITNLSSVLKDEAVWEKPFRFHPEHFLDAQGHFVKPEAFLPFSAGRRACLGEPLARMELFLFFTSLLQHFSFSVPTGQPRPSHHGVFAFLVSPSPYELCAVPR
Text: as §1, §2

[3] = system: L. infantum intracellular amastigotes; test: Activity against L. infantum intracellular amastigotes (luciferase); format: cell-based, Leishmania infantum; conditions: for inhibition at 10 µM: Leishmania infantum, read-out: L. infantum % cell growth inhibition
Experimental: Luciferase-expressing L. infantum (MHOM/MA/67/ITMAP-263) axenic amastigotes were cultured in MAA/20 medium at 37 °C with 5% CO2. The parasites were maintained in 5 mL T25 ventilated flasks and subcultured every 7 days at a concentration of 1 × 10^6 cells/mL.
The activity against Leishmania infantum intracellular amastigotes was evaluated following the method described with modifications. THP-1 cells were differentiated into macrophages with PMA as described above. The cells were then infected with L. infantum axenic amastigotes expressing episomal luciferase at a macrophage-to-amastigote ratio of 1:10 for 4 h at 37 °C and 5% CO2. Noninternalized parasites were washed away, and compounds were added at various concentrations to a final volume of 100 μL. A dose–response curve for miltefosine was included in all assays as a quality control. Each condition was tested in quadruplicate. After 72 h of incubation, the medium was replaced with 100 μL of PBS, and 25 μL of Glo-lysis buffer from the Steady-Glo Luciferase Assay System (Promega, Madison, WI, USA) was added. The plates were agitated at 100 rpm for 10 min at room temperature. Subsequently, 30 μL of the Steady-Glo reagent (Promega, Madison, WI, USA) was added and incubated for 15 min in the dark under the same conditions. A total of 140 μL from each well was transferred to white-bottom 96-well plates, and luminescence intensity was measured using a Synergy 2 multimode reader (Biotek, Winooski, VT, USA). The antileishmanial effect was evaluated by comparison of the nontreated infected cells. The IC50 was determined (for miltefosine) through nonlinear regression analysis using GraphPad Prism version 8.1.1 for Windows (GraphPad Software, San Diego, CA, USA). Results represent the average of at least three independent experiments.

[4] = read-out: 95% confidence interval for EC50 (T. brucei)
[5] = read-out: T. brucei EC50 (converted)
[6] = at 10 μM, intracellular amastigotes

T1 sequence (P11712 whole entry, canonical isoform): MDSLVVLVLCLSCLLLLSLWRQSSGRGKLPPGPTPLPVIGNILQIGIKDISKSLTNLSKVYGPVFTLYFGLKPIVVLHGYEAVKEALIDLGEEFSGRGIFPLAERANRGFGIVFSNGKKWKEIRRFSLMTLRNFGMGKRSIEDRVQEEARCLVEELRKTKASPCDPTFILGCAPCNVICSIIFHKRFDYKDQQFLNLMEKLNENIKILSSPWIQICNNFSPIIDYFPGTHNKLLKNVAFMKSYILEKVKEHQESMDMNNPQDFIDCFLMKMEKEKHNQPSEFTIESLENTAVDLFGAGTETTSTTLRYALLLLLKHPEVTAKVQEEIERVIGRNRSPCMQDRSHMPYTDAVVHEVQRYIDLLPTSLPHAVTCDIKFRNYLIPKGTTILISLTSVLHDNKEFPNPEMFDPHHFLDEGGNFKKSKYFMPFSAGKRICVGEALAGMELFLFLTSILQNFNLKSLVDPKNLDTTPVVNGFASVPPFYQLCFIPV

SMILES | A549 cytotoxicity LC50 (50% lethal concentration) (A549 cells) | A549 cytotoxicity TGI (total growth inhibition) (A549 cells) | GI50 [1] [µM] | hERG IC50 (hERG) | inhibition at 10 µM ([2]; at 10 μM) [%] | IC50 (CYP2D6) [µM] | inhibition at 10 µM [3, 6] [%] | IC50 (CYP2C9; read-out: CYP 2C9 IC50) [µM] | IC50 (hERG) [µM] | further results
Nc1nc2ccc(C(=O)NCCc3ccc(Cl)c(Cl)c3)cc2s1 [Compound 1a, 2-amino-N-(3,4-dichlorophenethyl)benzo[d]thiazole-6-carboxamide] | max | 54.4 µM | 27 | max | 100 | 0.1 | < 0 | – | – | CYP 2C9 IC50 (CYP2C9): max; EC50 [2, 4]: 2.83 to 3.37 µM; EC50 [2, 5]: 3.1 µM; L. infantum % cell growth inhibition [3, 6]: inactive
Nc1nc2ccc(C(=O)N(CCc3ccc(Cl)c(Cl)c3)C3CC3)cc2s1 [Compound 1b, 2-amino-N-cyclopropyl-N-(3,4-dichlorophenethyl)benzo[d]thiazole-6-carboxamide] | max | 54.6 µM | 13.8 | max | 97 | 0.9 | ~50 | 5 | – | EC50 [2, 4]: 4.45 to 5.88 µM; EC50 [2, 5]: 5 µM; L. infantum % cell growth inhibition [3, 6]: 46±13%
Nc1nc2ccc(C(=O)N(Cc3ccc(Cl)c(Cl)c3)C3CC3)cc2s1 [Compound 1c, 2-amino-N-cyclopropyl-N-(3,4-dichlorobenzyl)benzo[d]thiazole-6-carboxamide] | – | 61.3 µM | 24.6 | max | 18 ± 8 | 2.5 | 24 ± 3 | 48.3 | – | LC50 (50% lethal concentration) [1]: 100 µM
Nc1nc2ccc(CN(Cc3ccc(Cl)c(Cl)c3)C3CC3)cc2s1 [Compound 1d, 6-((cyclopropyl(3,4-dichlorobenzyl)amino)methyl)benzo[_d_]thiazol-2-amine] | – | 34.4 µM | 12.6 | max | 59 ± 2 | 2.5 | < 0 | 8.8 | – | LC50 (50% lethal concentration) [1]: 63.1 µM
Nc1nc2ccc(C(=O)N(CCc3ccc(Cl)c(Cl)c3)c3ccccc3)cc2s1 [Compound 1e, 2-amino-N-(3,4-dichlorophenethyl)-N-phenylbenzo[d]thiazole-6-carboxamide] | – | – | – | – | 31 | – | < 0 | – | – | activity at 10 µM (CYP2C9; human, at 10 µM compound concentration, read-out: CYP 2C9 % residual activity): 35.3%; activity at 10 µM (A549 cells; Homo sapiens, A549, at 10 µM compound concentration, printed in GI50 column, read-out: A549 % residual activity): 103%; activity at 10 µM (hERG; human, at 10 µM compound concentration, read-out: hERG % residual activity): -34.8%; activity at 10 µM (CYP2D6; human, at 10 µM compound concentration, read-out: CYP 2D6 % residual activity): 59.9%
Nc1nc2ccc(C(=O)NCCc3ccccc3)cc2s1 [Compound 2a, 2-amino-N-phenethylbenzo[d]thiazole-6-carboxamide] | max | max | – | significant blocking of hERG channels | 27 | – | < 0 | 37.7 | 4.5 | A549 cytotoxicity GI50 (50% growth inhibition) (A549 cells): max; CYP 2D6 IC50 (CYP2D6): max
Nc1nc2ccc(C(=O)NCCc3cccc(Cl)c3)cc2s1 [Compound 2b, 2-amino-N-(3-chlorophenethyl)benzo[d]thiazole-6-carboxamide] | max | 95.9 µM | 54.5 | – | – | 0.9 | – | – | 2.8 | IC50 (CYP2C9): 35.2 µM; inhibition at 10 µM [2]: 51%; inhibition at 10 µM [3]: < 0%
Nc1nc2ccc(C(=O)NCCc3ccc(Cl)cc3)cc2s1 [Compound 2c, 2-amino-N-(4-chlorophenethyl)benzo[d]thiazole-6-carboxamide] | max | max | – | – | 27 | 0.5 | < 0 | 9.6 | 4.5 | A549 cytotoxicity GI50 (50% growth inhibition) (A549 cells): max
Nc1nc2ccc(C(=O)NCCc3cccc(Br)c3)cc2s1 [Compound 2d, 2-amino-N-(3-bromophenethyl)benzo[d]thiazole-6-carboxamide] | max | 85.5 µM | 60.4 | – | 39 ± 5 | 5 | < 0 | 74.5 | 3.2 | –
Nc1nc2ccc(C(=O)NCCc3ccc(Br)cc3)cc2s1 [Compound 2e, 2-amino-N-(4-bromophenethyl)benzo[d]thiazole-6-carboxamide] | max | max | – | – | 37 | 0.1 | < 0 | 3.6 | 3.2 | A549 cytotoxicity GI50 (50% growth inhibition) (A549 cells): max
Nc1nc2ccccc2n1Cc1ccc(Cl)c(Cl)c1 [I, 1-(3,4-dichlorobenzyl)-1H-benzimidazol-2-amine, reference compound] | – | – | – | – | < 0 | – | 29 ± 2 | 4.2 | 0.85 | –

Source: article PMC12516686, “Design of 2‑Aminobenzothiazole Derivatives Targeting Trypanosomatid PTR1 by a Multidisciplinary Fragment Hybridization Approach” (Journal of Medicinal Chemistry, 2025)
